Biological target: PD-1/PD-L1 (Homo sapiens (Human), UniProt Q9NZQ7)
Assay: PD-1/PD-L1 Binding Assay (Alphascreen)
Outline: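 PD-1/PD-L1 binding detected by anti-6×His acceptor and streptavidin donor beads after 120 min in the dark at 25 °C. Beforehand, the two proteins were incubated 15 min at 25 °C with inhibitor at 0.015–300 nM (1% DMSO). IC50 comes from a log concentration–response curve.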

Chain of PD-1/PD-L1 (Q9NZQ7 19-238): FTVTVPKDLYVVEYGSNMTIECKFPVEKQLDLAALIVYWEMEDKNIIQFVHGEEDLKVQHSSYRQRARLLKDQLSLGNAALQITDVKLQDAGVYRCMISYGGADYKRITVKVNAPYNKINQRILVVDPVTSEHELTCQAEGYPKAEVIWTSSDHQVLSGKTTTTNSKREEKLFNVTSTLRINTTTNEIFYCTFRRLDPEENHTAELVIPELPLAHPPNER

Row | SMILES | IC50 (numeric values) [nM] | IC50 (range symbols) [nM]
1 | Cc1c(-c2nc3cc(CN4CCC[C@@H]4C(=O)O)c(OC(F)F)cc3o2)cccc1-c1cccc(-c2nc3cc(CN4CC[C@@H](C)C4)cc(C#N)c3o2)c1C [Example 132, ((2-(3′-(7-cyano-5-(((R)-3-methylpyrrolidin-1-yl)methyl)benzo[d]oxazol-2-yl)-2,2′-dimethyl-[1,1′-biphenyl]-3-yl)-6-(difluoromethoxy)benzo[d]oxazol-5-yl)methyl)-D-proline] | 2 | 
2 | Cc1c(-c2nc3cc(CN4CCC[C@H]4C(=O)O)c(OC(F)F)cc3o2)cccc1-c1cccc(-c2nc3cc(CNCC4CCC(=O)N4)cnc3o2)c1C (stereo partly drawn) [Example 115, ((6-(difluoromethoxy)-2-(2,2′-dimethyl-3′-(6-((((5-oxopyrrolidin-2-yl)methyl)amino)methyl)oxazolo[5,4-b]pyridin-2-yl)-[1,1′-biphenyl]-3-yl)benzo[d]oxazol-5-yl)methyl)-L-proline] |  | 0.1 to 5
3 | Cc1c(-c2nc3cc(CN4CCC[C@@H]4C(=O)O)c(OC(F)F)cc3o2)cccc1-c1cccc(-c2nc3cc(CN4CC(C)(C)C4)cc(C#N)c3o2)c1C [Example 140, ((2-(3′-(7-cyano-5-((3,3-dimethylazetidin-1-yl)methyl)benzo[d]oxazol-2-yl)-2,2′-dimethyl-[1,1′-biphenyl]-3-yl)-6-(difluoromethoxy)benzo[d]oxazol-5-yl)methyl)-D-proline] |  | 0.1 to 5
4 | Cc1c(-c2ccc(CN3CC[C@H](CO)C3)c(C#N)c2)cccc1-c1cccc(-c2nc3cc(CN4CCC[C@H]4C(=O)O)c(OC(F)F)cc3o2)c1C [Example 240, ((2-(3″-cyano-4″-(((S)-3-(hydroxymethyl)pyrrolidin-1-yl)methyl)-2,2′-dimethyl-[l,1′:3′,1″-terphenyl]-3-yl)-6-(difluoromethoxy)benzo[d]oxazol-5-yl)methyl)-L-proline] |  | 5 to 50
5 | Cc1c(-c2nc3cc(CN4CCC[C@H]4C(=O)O)c(OC(F)F)cc3o2)cccc1-c1cccc(-c2nc3cc(CN4CCC4(C)N)c(OC(F)F)cc3o2)c1C (stereo partly drawn) [Example 40, ((2-(3′-(5-((2-amino-2-methylazetidin-1-yl)methyl)-6-(difluoromethoxy)benzo[d]oxazol-2-yl)-2,2′-dimethyl-[1,1′-biphenyl]-3-yl)-6-(difluoromethoxy)benzo[d]oxazol-5-yl)methyl)-L-proline] |  | 0.1 to 5
6 | Cc1c(-c2ccc(C3CCCN3)cc2)cccc1-c1cccc(-c2nc3cc(CN4CCC[C@H]4C(=O)O)c(OC(F)F)cc3o2)c1C (stereo partly drawn) [Example 255, ((6-(difluoromethoxy)-2-(2,2′-dimethyl-4″- (pyrrolidin-2-yl)-[1,1′:3′,1″-terphenyl]-3-yl)benzo[d]oxazol-5-yl)methyl)-L-proline] | 2.3 | 
7 | Cc1c(-c2nc3cc(CN4CCC[C@H]4C(=O)O)c(OC(F)F)cc3o2)cccc1-c1cccc(-c2nc3cc(CNCc4cn(C)cn4)cc(C#N)c3o2)c1C [Example 160, ((2-(3′-(7-cyano-5-((((1-methyl-1H-imidazol-4-yl)methyl)amino)methyl)benzo[d]oxazol-2-yl)-2,2′-dimethyl-[1,1′-biphenyl]-3-yl)-6-(difluoromethoxy)benzo[d]oxazol-5-yl)methyl)-L-proline] |  | 0.1 to 5
8 | Cc1c(-c2nc3cc(CN4CCC[C@H]4C(N)=O)c(OC(F)F)cc3o2)cccc1-c1cccc(-c2nc3cc(CN4CCC[C@H]4C(=O)O)c(OC(F)F)cc3o2)c1C [Example 11, ((2-(3′-(5-(((S)-2-carbamoylpyrrolidin-1-yl)methyl)-6-(difluoromethoxy)benzo[d]oxazol-2-yl)-2,2′-dimethyl-[1,1′-biphenyl]-3-yl)-6-(difluoromethoxy)benzo[d]oxazol-5-yl)methyl)-L-proline] | 33 | 
9 | Cc1c(-c2nc3cc(CN4CCC[C@H]4C(=O)O)c(OC(F)F)cc3o2)cccc1-c1cccc(N2CCC(CN3CCCC3)CC2)c1C [Example 309, ((6-(difluoromethoxy)-2-(2,2′-dimethyl-3′-(4-(pyrrolidin-1-ylmethyl)piperidin-1-yl)-[1,1′-biphenyl]-3-yl)benzo[d]oxazol-5-yl)methyl)-L-proline] |  | 0.1 to 5
10 | Cc1c(-c2nc3cc(CN4CCC[C@H]4C(=O)O)c(OC(F)F)cc3o2)cccc1-c1cccc(-c2nc3cc(CN4CC(C)(C)C4)c(OC(F)F)cc3o2)c1C#N [Example 4, ((2-(2′-cyano-3′-(6-(difluoromethoxy)-5-((3,3-dimethylazetidin-1-yl)methyl)benzo[d]oxazol-2-yl)-2-methyl-[1,1′-biphenyl]-3-yl)-6-(difluoromethoxy)benzo[d]oxazol-5-yl)methyl)-L-proline] | 1.4 | 
11 | Cc1c(-c2nc3cc(CNCCS(C)(=O)=O)c(OC(F)F)cc3o2)cccc1-c1cccc(-c2nc3cc(CN4CCC[C@H]4C(=O)O)c(OC(F)F)cc3o2)c1C [Example 32, ((6-(difluoromethoxy)-2-(3′-(6-(difluoromethoxy)-5-(((2-(methylsulfonyl)ethyl)amino)methyl)benzo[d]oxazol-2-yl)-2,2′-dimethyl-[1,1′-biphenyl]-3-yl)benzo[d]oxazol-5-yl)methyl)-L-proline] | 3.8 | 
12 | Cc1c(-c2nc3cc(CN4CCC[C@H]4C(=O)O)c(OC(F)F)cc3o2)cccc1-c1cccc(-c2ccc(CNC[C@@H]3CCC(=O)N3)c(OC(F)F)c2)c1F [Example 216, ((6-(difluoromethoxy)-2-(3″-(difluoromethoxy)-2′-fluoro-2-methyl-4″-(((((S)-5-oxopyrrolidin-2-yl)methyl)amino)methyl)-[1,1′:3′,1″- terphenyl]-3-yl)benzo[d]oxazol-5-yl)methyl)-L-proline] |  | 0.1 to 5
13 | Cc1c(-c2nc3cc(CN4CC(C)(C)C4)c(OC(F)F)cc3o2)cccc1-c1cccc(-c2nc3cc(CN4CCC[C@H]4C(=O)O)c(OC(F)F)cc3o2)c1C#N [Example 128, ((2-(2-cyano-3′-(6-(difluoromethoxy)-5-((3,3-dimethylazetidin-1-yl)methyl)benzo[d]oxazol-2-yl)-2′-methyl-[1,1′-biphenyl]-3-yl)-6-(difluoromethoxy)benzo[d]oxazol-5-yl)methyl)-L-proline] | 0.14 | 

Now from value to compound:

Row | IC50 (numeric values) [nM] | IC50 (range symbols) [nM] | SMILES
14 | 1.3 |  | Cc1c(-c2cnc(CN3CCCC3)nc2)cccc1-c1cccc(-c2nc3cc(CN4CCC[C@H]4C(=O)O)c(OC(F)F)cc3o2)c1C [Example 281, ((6-(difluoromethoxy)-2-(2,2′-dimethyl-3′-(2-(pyrrolidin-1-ylmethyl)pyrimidin-5-yl)-[1,1′-biphenyl]-3-yl)benzo[d]oxazol-5-yl)methyl)-L-proline]
15 | 78 |  | Cc1c(-c2nc3cc(CN4CCC[C@H]4C(=O)O)c(OC(F)F)cc3o2)cccc1-c1cccc(-c2nc3cc(CN4CCCC4)c(F)c(F)c3o2)c1C#N [Example 118, ((2-(2′-cyano-3′-(6,7-difluoro-5-(pyrrolidin-1-ylmethyl)benzo[d]oxazol-2-yl)-2-methyl-[1,1′-biphenyl]-3-yl)-6-(difluoromethoxy)benzo[d]oxazol-5-yl)methyl)-L-proline]
16 |  | > 50 | Cc1c(-c2nc3cc(CN4CCC[C@H]4C(=O)O)c(OC(F)F)cc3o2)cccc1-c1cccc(-c2nc3c(F)c(F)c(CN4CCCC4)cc3n2CC(F)(F)F)c1C [Example 300, ((2-(3′-(4,5-difluoro-6-(pyrrolidin-1-ylmethyl)-1-(2,2,2-trifluoroethyl)-1H-benzo[d]imidazol-2-yl)-2,2′-dimethyl-[1,1′-biphenyl]-3-yl)-6-(difluoromethoxy)benzo[d]oxazol-5-yl)methyl)-L-proline]
17 |  | 5 to 50 | COC1CN(Cc2cc3nc(-c4cccc(-c5cccc(-c6nc7cc(CN8CCC[C@H]8C(=O)O)c(OC(F)F)cc7o6)c5C)c4C)oc3cc2OC(F)F)C1 [Example 43, ((6-(difluoromethoxy)-2-(3′-(6-(difluoromethoxy)-5-((3-methoxyazetidin-1-yl)methyl)benzo[d]oxazol-2-yl)-2,2′-dimethyl-[1,1′-biphenyl]-3-yl)benzo[d]oxazol-5-yl)methyl)-L-proline]
18 | 1.9 |  | Cc1c(-c2nc3cc(CN4CCC[C@H]4C(=O)O)c(OC(F)F)cc3o2)cccc1-c1cccc(-c2nc3cc(CN4CCC4)cc(C)c3o2)c1C [Example 94, ((2-(3′-(5-(azetidin-1-ylmethyl)-7-methylbenzo[d]oxazol-2-yl)-2,2′-dimethyl-[1,1′-biphenyl]-3-yl)-6-(difluoromethoxy)benzo[d]oxazol-5-yl)methyl)-L-proline]
19 | 3.9 |  | Cc1c(Nc2nccc3cc(CN4CC(O)C4)cnc23)cccc1-c1cccc(-c2nc3cc(CN4CCC[C@H]4C(=O)O)c(OC(F)F)cc3o2)c1C [Example 178, ((6-(difluoromethoxy)-2-(3′-((3-((3-hydroxyazetidin-1-yl)methyl)-1,7-naphthyridin-8-yl)amino)-2,2′-dimethyl-[1,1′-biphenyl]-3-yl)benzo[d]oxazol-5-yl)methyl)proline]
20 |  | 5 to 50 | COc1nc(OCc2cccc(-c3cccc(-c4nc5cc(CN6CCC[C@H]6C(=O)O)c(OC(F)F)cc5o4)c3C)c2C)nc(OC)c1CN1CC(C)(C)C1 [Example 213, ((6-(difluoromethoxy)-2-(3′-(((5-((3,3-dimethylazetidin-1-yl)methyl)-4,6-dimethoxypyrimidin-2-yl)oxy)methyl)-2,2′-dimethyl-[1,1′-biphenyl]-3-yl)benzo[d]oxazol-5-yl)methyl)-L-proline]
21 | 0.87 |  | Cc1c(-c2nc3ccc(CN4CCCC4)cn3n2)cccc1-c1cccc(-c2nc3cc(CN4CCC[C@H]4C(=O)O)c(OC(F)F)cc3o2)c1C [Example 305, ((6-(difluoromethoxy)-2-(2,2′-dimethyl-3′-(6-(pyrrolidin-1-ylmethyl)-[1,2,4]triazolo[1,5-a]pyridin-2-yl)-[1,1′-biphenyl]-3-yl)benzo[d]oxazol-5-yl)methyl)-L-proline]
22 |  | 0.1 to 5 | Cc1c(-c2nc3cc(CN4CCC4C)c(OC(F)F)cc3o2)cccc1-c1cccc(-c2nc3cc(CN4CCC[C@H]4C(=O)O)c(OC(F)F)cc3o2)c1C (stereo partly drawn) [Example 60, ((6-(difluoromethoxy)-2-(3′-(6-(difluoromethoxy)-5-((2-methylazetidin-1-yl)methyl)benzo[d]oxazol-2-yl)-2,2′-dimethyl-[1,1′-biphenyl]-3-yl)benzo[d]oxazol-5-yl)methyl)-L-proline]

Source: US12187713B2, “Immunomodulators, compositions and methods thereof” (Betta Pharmaceuticals Co., Ltd, priority 2019, dated 2025)
